Experimental data published in patent EP0904079B1, “ANTIDIABETIC AGENTS” (MERCK & CO., INC., priority 1996, dated 1997).

Target: T1, Human PPARδ (Homo sapiens, UniProt Q03181)
T1 construct: The full length human cDNA for PPARγ2 and PPARδ were subcloned into the PGEX-2T and PGEX-KT, respectively, expression vector; made in house; host or cells: E. coli
T1 sequence (Q03181 1-441): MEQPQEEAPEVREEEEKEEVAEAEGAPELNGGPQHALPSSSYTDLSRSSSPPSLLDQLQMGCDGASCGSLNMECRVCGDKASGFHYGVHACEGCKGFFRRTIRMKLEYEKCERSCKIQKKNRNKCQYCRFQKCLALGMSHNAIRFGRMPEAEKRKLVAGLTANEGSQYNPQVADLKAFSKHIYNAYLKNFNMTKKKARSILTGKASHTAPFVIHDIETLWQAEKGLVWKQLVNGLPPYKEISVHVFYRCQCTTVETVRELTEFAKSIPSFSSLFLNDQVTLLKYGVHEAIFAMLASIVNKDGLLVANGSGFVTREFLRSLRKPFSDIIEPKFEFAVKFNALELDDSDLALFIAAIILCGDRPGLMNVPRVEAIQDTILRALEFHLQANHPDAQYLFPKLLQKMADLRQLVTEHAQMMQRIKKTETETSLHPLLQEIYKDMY
Assay: [3H2]Example 11 displacement assay (PPAR receptor binding assay)
Description: Human PPARγ2 and PPARδ, independently, were prepared as gst-fusion proteins in E. coli. The full length human cDNA for PPARγ2 and PPARδ were subcloned into the PGEX-2T and PGEX-KT, respectively, expression vector (Pharmacia). E. coli containing the plasmid were grown, induced, and then harvested by centrifugation. The resuspended pellet was broken in a French press and debris was removed by centrifugation at 12,000Xg. Receptors were purified from the supernatant by affinity chromatography on glutathione sepharose. After application to the column, and 1 wash, receptor was eluted with glutathione. Glycerol was added to stabilize the receptor and aliquots were frozen at -80 °C for later use.
Assays were incubated for ∼ 16 h at 4 °C in a final volume of 300 µl. Unbound ligand was removed by addition of 200 µl dextran/gelatin-coated charcoal, on ice, for ∼10 minutes. After centrifugation at 3000 rpm for 10 min at 4 °C, 200 µl of the supernatant fraction was counted in a liquid scintillation counter.

Kd: 1 nM
SMILES: CCCc1c(OCCCSc2ccc(CC(=O)O)cc2Cl)ccc2oc3ccccc3c12 [Example 11, 3-Chloro-4-(1-propyl-dibenzofuranyl-2-oxy-propylthio)-phenylacetic acid]
